# Values quoted from earlier work in US9801891B2, “Compositions and methods for lowering intraocular pressure” (ALLERGAN, INC., priority 2009, dated 2017).
# Tested on: alpha-2 adrenoceptor
compound,measurement,value
"Brc1c(N=C2NCCN2)ccc2nccnc12.O=C(O)C(O)C(O)C(=O)O [Brimonidine tartrate, 5-bromo-6-(2-imidazolidinylideneamino) quinoxaline L-tartrate]",Selectivity for the alpha-2 adrenoceptor over the alpha-1 adrenoreceptor,1000 fold
